The numbers were not newly measured in patent US10064856B2, “Pharmaceutical compositions” (LOCL PHARMA, INC., priority 2008, dated 2018), which cites them from elsewhere.

For the data set the following is noted: more than about 0.6 to 2.0 gm, typically more than about 0.6 gm.

SMILES strings stand for the structures.

On to `O=S(=O)([O-])[O-].[Zn+2]` [Zinc sulfate, zinc sulfate], for which the “amount ingested that can induce emesis” value is given as “more than 0.6 gm”.
